In general, Ki refers to a dissociation constant, usually derived from enzyme kinetics or from competition with a known ligand. As usually defined, the IC50 is the concentration at which inhibition is half-maximal.

Assay [1] addresses T1, BCLXL (Homo sapiens, UniProt Q07817, V10N/V9A). The experiment in a line: Fluorescence polarisation assay (PUMA-based probe displacement). Note: 20 nM protein, 10 nM fluorescent probe. It counts as binding. (In fluorescence polarisation assays a small probe gives low polarisation when free and higher when bound to something large.)
The test system of a further assay is MOLT-4 cells. The experiment in a line: MOLT-4 cell viability, MTT assay. Type of assay: cell-based. Conditions: Homo sapiens, MOLT-4, 48 h, 48 h exposure. In short, it runs like this:
(§1)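 Cells grown in RPMI 1640 with 10% heat-inactivated FBS at 37° C, 5% CO2, exposed 48 h to nine 3.16-fold serial compound dilutions in triplicate. MTT added for 4 h, SDS/HCl solubilisation overnight, absorbance at 540 nm; IC50 by four-parameter fit.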

The subject of another assay is H146 cells. The experiment in a line: H146 cell viability, MTT assay. Type of assay: cell-based. Conditions: Homo sapiens, NCI-H146, 48 h, 48 h exposure. In short, it runs like this:
as §1
In general terms: Tetrazolium dyes change colour on reduction, which living cells bring about.

The target in assay [2] is T1, BCLXL. Briefly: AlphaLISA assay (BIM peptide displacement). It counts as binding. To be noted: 20 pM protein, 1 nM peptide. As to the method:
AlphaLISA assay measures an increase in alpha signal upon binding biotinylated GST(1-218)-(FACTOR_XA)-hs ? (2-209)(SEQ ID:02—GST UniProtKB® primary accession number P08515 and BCLXL UniProtKB® primary accession number Q07817-1) coupled to a Streptavidin labeled Alpha donor bead to N-terminally labeled peptide derived from BIM (Fluorescein-betaAla-Ahx-SEQID:05, wherein SEQ ID:05 is […]) coupled to an Anti-FTIC AlphaLISA acceptor bead.
GST(1-218)(FACTOR_XA)-hs ? (2-209) was biotinylated in 50 mM phosphate buffer using a 20 fold excess of EZ Link NHS-LC-Biotin (thermoFisher catalogue number 21336) overnight at 4° C.
The addition of a compound which binds competitively to the same site as the peptide will result in an decrease in the Alpha signal of the available donor bead-protein-peptide-acceptor bead complex due to displacement of the peptide.
An 11-point serial dilution of each compound was prepared in DMSO, the final buffer conditions were 10 mM 4-(2-hydroxyethyl)-1-piperazineethanesulfonic acid [HEPES], 150 mM NaCl, 0.05% Tween 20, pH 7.4 and 4% DMSO. The final protein concentration in the assay was 20 pM with the peptide present at 1 nM). Alpha beads were used at a final concentration of 5 ug/mL. The experiments were incubated for overnight at 23° C. after acceptor bead addition. Finally the donor bead is added and incubated for 2 hours at 23° C. before Alpha signal measured on a Biotek Synergy2 plate reader (Excitation 680 nm, emission 615 nm).
On the technique in general: In Alpha technology, singlet oxygen from a donor bead excites a nearby acceptor bead.

T1 sequence (Q07817 with tags, fused parts or gaps V9A/V10N): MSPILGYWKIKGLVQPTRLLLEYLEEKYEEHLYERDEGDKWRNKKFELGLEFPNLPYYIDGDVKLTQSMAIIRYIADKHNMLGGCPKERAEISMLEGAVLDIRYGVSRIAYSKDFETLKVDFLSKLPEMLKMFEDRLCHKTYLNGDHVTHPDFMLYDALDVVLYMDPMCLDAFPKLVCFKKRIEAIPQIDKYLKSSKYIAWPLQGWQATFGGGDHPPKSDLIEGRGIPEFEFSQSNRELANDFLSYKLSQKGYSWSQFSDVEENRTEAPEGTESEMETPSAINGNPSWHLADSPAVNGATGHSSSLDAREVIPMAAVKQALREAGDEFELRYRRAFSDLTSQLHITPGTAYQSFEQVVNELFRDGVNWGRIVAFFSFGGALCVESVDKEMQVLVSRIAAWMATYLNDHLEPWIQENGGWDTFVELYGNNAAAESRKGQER

As for `Cc1c(Nc2nc(C(=O)O)c(CCCOc3ccc(C#CCN(C)C)cc3F)s2)nnc(Nc2nc3ccccc3s2)c1C` [Example 3, 2-({6-[(1,3-Benzothiazol-2-yl)amino]-4,5-dimethylpyridazin-3-yl}amine)-5-(3-{4-[3-(dimethylamino)prop-1-yn-1-yl]-2-fluorophenoxy}propyl)-1,3-thiazole-4-carboxylic acid], at BCLXL [1], the Ki came out at 1.9 nM. Also, the IC50 in the assay with MOLT-4 cells amounted to 90 nM; with H146 cells it was 42 nM; at BCLXL [2], 0.096 nM.
On to `COCCCN(c1cc(C)c(Nc2nc3ccccc3s2)nn1)c1nc(C(=O)O)c(CCCOc2ccc(C#CCN(C)C)cc2F)s1` [Example 54, 2-({6-[(1,3-Benzothiazol-2-yl)amino]-5-methylpyridazin-3-yl}(3-methoxypropyl)amino)-5-(3-{4-[3-(dimethylamino)prop-1-yn-1-yl]-2-fluorophenoxy}propyl)-1,3-thiazole-4-carboxylic acid], for which the Ki on BCLXL [1] turned out to be 1.4 nM. In addition, the IC50 in the assay on MOLT-4 cells came to 5.07 nM; in the assay on H146 cells, 35.2 nM; at BCLXL [2], 0.025 nM.
With `Cc1cc(N(C)c2nc(C(=O)O)c(C3CCN(C(=O)Cc4ccccc4)CC3)s2)nnc1Nc1nc2ccccc2s1` [Example 96, 2-({6-[(1,3-Benzothiazol-2-yl)amino]-5-methylpyridazin-3-yl}(methyl)amino)-5-[1-(2-phenylacetyl)piperidin-4-yl]-1,3-thiazole-4-carboxylic acid], at BCLXL [1], the Ki came to 220 nM. The IC50 at BCLXL [2] worked out at 270 nM.
On to `CC(=O)N1CCC(c2sc(N(C)c3cc(C)c(Nc4nc5ccccc5s4)nn3)nc2C(=O)O)CC1` [Example 97, 5-(1-Acetylpiperidin-4-yl)-2-({6-[(1,3-benzothiazol-2-yl)amino]-5-methylpyridazin-3-yl}(methyl)amino)-1,3-thiazole-4-carboxylic acid], for which the Ki at BCLXL [1] was 130 nM. The IC50 at BCLXL [2] was found to be 210 nM.
For `CNCC#Cc1ccc(OCCCc2sc(N(CCCC(CO)OC)c3cc(C)c(Nc4nc5ccccc5s4)nn3)nc2C(=O)O)c(F)c1` (centres unmarked) [Example 112, 2-[[6-(1,3-Benzothiazol-2-ylamino)-5-methyl-pyridazin-3-yl]-(5-hydroxy-4-methoxy-pentyl)amino]-5-[3-[2-fluoro-4-[3-(methylamino)prop-1-ynyl]phenoxy]propyl]thiazole-4-carboxylic acid], the IC50 came to 77.5 nM in the assay on MOLT-4 cells, 30.9 nM in the assay with H146 cells and 0.028 nM on BCLXL [2].
In the case of `CNCC#Cc1ccc(OCCCc2sc(N(CCCC(O)CN3CCOCC3)c3cc(C)c(Nc4nc5ccccc5s4)nn3)nc2C(=O)O)c(F)c1` (centres unmarked) [Example 113, 2-[[6-(1,3-Benzothiazol-2-ylamino)-5-methyl-pyridazin-3-yl]-(4-hydroxy-5-morpholino-pentyl)amino]-5-[3-[2-fluoro-4-[3-(methylamino)prop-1-ynyl]phenoxy]propyl]thiazole-4-carboxylic acid], the IC50 in the assay on MOLT-4 cells came to 25.7 nM; in the assay with H146 cells, 13 nM; at BCLXL [2], 0.028 nM.
With `CNCC#Cc1ccc(OCCCc2sc(N(CC(CO)N3CCOCC3)c3cc(C)c(Nc4nc5ccccc5s4)nn3)nc2C(=O)O)c(F)c1` (centres unmarked) [Example 115, 2-[[6-(1,3-Benzothiazol-2-ylamino)-5-methyl-pyridazin-3-yl]-(3-hydroxy-2-morpholino-propyl)amino]-5-[3-[2-fluoro-4-[3-(methylamino)prop-1-ynyl]phenoxy]propyl]thiazole-4-carboxylic acid], the figures for the IC50 in the assay on MOLT-4 cells, in the assay on H146 cells and on BCLXL [2] were above 150 nM, above 150 nM and 0.089 nM, respectively.
Regarding `Cc1ccc(S(=O)(=O)N(C)CC#Cc2ccc(OCCCc3sc(N(CCC(O)CO)c4cc(C)c(Nc5nc6ccccc6s5)nn4)nc3C(=O)O)c(F)c2)cc1` (centres unmarked) [Example 120, 2-[[6-(1,3-Benzothiazol-2-ylamino)-5-methyl-pyridazin-3-yl]-(3,4-dihydroxybutyl)amino]-5-[3-[2-fluoro-4-[3-[methyl(p-tolylsulfonyl)amino]prop-1-ynyl]phenoxy]propyl]thiazole-4-carboxylic acid], the IC50 in the assay on MOLT-4 cells worked out at 557 nM; with H146 cells it was 280 nM; on BCLXL [2], 0.099 nM.
For the molecule `Cc1cc(N(C)c2nc(C(=O)O)c(C3CN(C(=O)OC(C)(C)C)C3)s2)nnc1Nc1nc2ccccc2s1` [Example 135, 2-({6-[(1,3-Benzothiazol-2-yl)amino]-5-methylpyridazin-3-yl}(methyl)amino)-5-{1-[(tert-butoxy)carbonyl]azetidin-3-yl}-1,3-thiazole-4-carboxylic acid], the results for the IC50 with MOLT-4 cells, with H146 cells and on BCLXL [2] were 3240 nM, 5290 nM and 3.9 nM, respectively.
For the molecule `Cc1cc(N(C)c2nc(C(=O)O)c(CC(C)(C)COc3ccc(C#CCN(C)C)cc3F)s2)nnc1Nc1nc2ccccc2s1` [Example 137, 2-({6-[(1,3-Benzothiazol-2-yl)amino]-5-methylpyridazin-3-yl}(methyl)amino)-5-(3-{4-[3-(dimethylamino)prop-1-yn-1-yl]-2-fluorophenoxy}-2,2-dimethylpropyl)-1,3-thiazole-4-carboxylic acid], the IC50 stood at 61.4 nM with MOLT-4 cells, 320 nM with H146 cells and 0.27 nM at BCLXL [2].
Regarding `Cc1cc(N(C)c2nc(C(=O)O)c(C3CN(C(=O)Cc4ccccc4)C3)s2)nnc1Nc1nc2ccccc2s1` [Example 138, 2-({6-[(1,3-Benzothiazol-2-yl)amino]-5-methylpyridazin-3-yl}(methyl)amino)-5-[1-(2-phenylacetyl)azetidin-3-yl]-1,3-thiazole-4-carboxylic acid], on BCLXL [1], the Ki was found to be 29 nM. Moreover, at BCLXL [2], the IC50 was found to be 11 nM.
With `Cc1cc(N(C)c2nc(C(=O)O)c(C3CNC3)s2)nnc1Nc1nc2ccccc2s1` [Example 139, 5-(Azetidin-3-yl)-2-({6-[(1,3-benzothiazol-2-yl)amino]-5-methylpyridazin-3-yl}(methyl)amino)-1,3-thiazole-4-carboxylic acid], the Ki at BCLXL [1] was determined as 640 nM. Further, on BCLXL [2], the IC50 turned out to be 270 nM.
Regarding `Cc1cc(N(CCCC(O)CN(C)CCN(C)C)c2nc(C(=O)O)cs2)nnc1Nc1nc2ccccc2s1` (centres unmarked) [Example 142, 2-[[6-(1,3-Benzothiazol-2-ylamino)-5-methyl-pyridazin-3-yl]-[5-[2-(dimethylamino)ethyl-methyl-amino]-4-hydroxy-pentyl]amino]thiazole-4-carboxylic acid], at BCLXL [1], the inhibition constant Ki stood at 50 nM. Further, the IC50 at BCLXL [2] worked out at 10 nM.
In the case of `Cc1cc(N(CCCC(O)CN(C)C)c2nc(C(=O)O)cs2)nnc1Nc1nc2ccccc2s1` (centres unmarked) [Example 143, 2-[[6-(1,3-Benzothiazol-2-ylamino)-5-methyl-pyridazin-3-yl]-[5-(dimethylamino)-4-hydroxy-pentyl]amino]thiazole-4-carboxylic acid], the IC50 at BCLXL [2] turned out to be 22 nM.
Turning to `Cc1cc(N(C)c2nc(C(=O)O)c(C3CN(Cc4ccccc4)C3)s2)nnc1Nc1nc2ccccc2s1` [Example 145, 2-({6-[(1,3-Benzothiazol-2-yl)amino]-5-methylpyridazin-3-yl}(methyl)amino)-5-(1-benzylazetidin-3-yl)-1,3-thiazole-4-carboxylic acid], the Ki at BCLXL [1] is 180 nM. Besides, on BCLXL [2], the IC50 was found to be 190 nM.
In the case of `Cc1cc(N(CCCCO)c2nc(C(=O)O)c(CCCOc3ccc(C#CCN(C)CCCS(=O)(=O)O)cc3F)s2)nnc1Nc1nc2ccccc2s1` [Example 151, 2-[[6-(1,3-Benzothiazol-2-ylamino)-5-methyl-pyridazin-3-yl]-(4-hydroxybutyl)amino]-5-[3-[2-fluoro-4-[3-[methyl(3-sulfopropyl)amino]prop-1-ynyl]phenoxy]propyl]thiazole-4-carboxylic acid], the Ki on BCLXL [1] is below 1 nM. The IC50 in the assay with MOLT-4 cells worked out at 194 nM; at BCLXL [2], 0.005 nM.
Take `CC(=O)N1CC(c2sc(N(C)c3cc(C)c(Nc4nc5ccccc5s4)nn3)nc2C(=O)O)C1` [Example 152, 5-(1-Acetylazetidin-3-yl)-2-({6-[(1,3-benzothiazol-2-yl)amino]-5-methylpyridazin-3-yl}(methyl)amino)-1,3-thiazole-4-carboxylic acid]: the IC50 at BCLXL [2] was 2.3 nM.
`Cc1cc(N(C)c2nc(C(=O)O)c(C3CN(c4ccccc4)C3)s2)nnc1Nc1nc2ccccc2s1` [Example 153, 2-({6-[(1,3-Benzothiazol-2-yl)amino]-5-methylpyridazin-3-yl}(methyl)amino)-5-(1-phenylazetidin-3-yl)-1,3-thiazole-4-carboxylic acid]: on BCLXL [2], the IC50 was determined as 80 nM.
On to `C/C(=C\c1sc(N(C)c2cc(C)c(Nc3nc4ccccc4s3)nn2)nc1C(=O)O)COc1ccccc1` [Example 162, 2-({6-[(1,3-Benzothiazol-2-yl)amino]-5-methylpyridazin-3-yl}(methyl)amino)-5-[(1E)-2-methyl-3-phenoxyprop-1-en-1-yl]-1,3-thiazole-4-carboxylic acid], for which the IC50 in the assay with MOLT-4 cells worked out at 3170 nM; with H146 cells, 6590 nM; at BCLXL [2], 1.9 nM.

For the origin of these results see patent publication US12649733B2, “3,6-diamino-pyridazin-3-yl derivatives, pharmaceutical compositions containing them and their uses as pro-apoptotic agents” (LES LABORATOIRES SERVIER, priority 2019, dated 2026).
